In patent publication US7928135B2, “Benzene, pyridine, and pyridazine derivatives” (Serenex, Inc., priority 2005, dated 2011):

Columns and labels:
[1] = test system: PC-3 cell proliferation; assay: Cell proliferation assay (WST-1), PC-3; format: cell-based; details: Homo sapiens; PC-3 cells, WST-1 readout; read-out: inhibitory activity against PC-3 cell proliferation (IC50 range)
Protocol: A panel of cancer cell lines was obtained from the DCTP Tumor Repository, National Cancer Institute (Frederick, Md.) or ATCC (Rockville, Md.). Cell cultures were maintained in Hyclone RPMI 1640 medium (Logan, Utah) supplemented with 10% fetal bovine serum and 20 mM HEPES buffer, final pH 7.2, at 37° C. with a 5% CO2 atmosphere. Cultures were maintained at sub-confluent densities. Human umbilical vein endothelial cells (HUVEC) were purchased from Clonetics, a division of Cambrex (Walkersville, Md.). Cultures were established from cryopreserved stocks using Clonetics EGM-2 medium supplemented with 20 mM HEPES, final pH 7.2, at 37° C. with a 5% CO2 atmosphere.
For proliferation assays, cells were seeded with the appropriate medium into 96 well plates at 1,000-2,500 cells per well, depending on the cell line, and were incubated overnight. The following day, test compound, DMSO solution (negative control), or Actinomycin D (positive control) was added to the appropriate wells as 10× concentrated stocks prepared in phosphate buffered saline. The cell plates were then incubated for an additional 2-5 days, depending on the cell line, to allow proliferation to occur. To measure cell density, 50 μL of WST-1 solution (Roche Applied Science, Ind.) diluted 1:5 in phosphate buffered saline was added to each well, and the cells incubated for an additional 1-5 hrs., again depending on the cell line. Optical density was determined for each well at […] using a Tecan GeniosPro plate reader (RTP, NC). The percentage of cell growth was determined by comparing the cell growth in the presence of test compounds to the cells treated with DMSO vehicle (control, 100% growth) and cells treated with Actinomycin D (10 μM, 0% growth). […]

[2] = test system: HSP-90 (heat shock protein 90); assay: Determination of affinity for HSP-90 (elution from purine affinity column, SDS-PAGE densitometry); format: binding; parameters: key: +++: very high; ++: high; +: moderate; details: elution of HSP-90 from purine affinity column with 20, 100 and 500 μM test compound
Protocol: Affinity of test compounds for HSP-90 was determined as follows: Protein mixtures obtained from a variety of organ tissues (for example: spleen, liver and lung) were reversibly bound to a purine affinity column to capture purine-binding proteins, especially HSP-90. The purine affinity column was washed several times, and then eluted with 20 μM, 100 μM, and 500 μM of test compound. Compounds of Formula I elute HP-90 in a dose-dependent manner vs. a control elution using dimethylsulfoxide. The elution profile of Formula I compounds was determined by 1-dimensional SDS polyacrylamide gel electrophoresis. Gels were stained with a fluorescent stain such as sypro ruby (a highly sensitive fluorescent protein stain that can readily detect less than 1 fmol of total protein, i.e., less than 0.04 ng for a 40 kDa protein) or silver nitrate. The gels were imaged using a standard flat bed gel imager and the amount of protein estimated by densitometry. The percent of HSP-90 protein eluted from the column at each concentration was determined and IC50 values were calculated from these estimates. The identity of a band containing HSP-90 was determined by protein sequencing using mass spectroscopy.
Compounds of the invention are inhibitors of HSP-90 (heat shock protein 90). Several exemplary compounds useful in the methods of the invention are listed below.

| IC50 [1] [µM] | relative binding affinity to HSP-90 [2] | SMILES |
| --- | --- | --- |
| < 0.5 | +++ | CC(=O)Nc1cc(-n2cc(C)c3c2CC(C)(C)CC3=O)ccc1C(N)=O [Compound 98, 2-(acetylamino)-4-(3,6,6-trimethyl-4-oxo-4,5,6,7-tetrahydro-1H-indol-1-yl)benzamide] |
| 5 to 50 | ++ | CCc1cc(-n2nc(C)c3c2CC(C)(C)CC3=O)ccc1C(N)=O [Compound 102, 2-ethyl-4-(3,6,6-trimethyl-4-oxo-4,5,6,7-tetrahydro-1H-indazol-1-yl)benzamide] |
| 0.5 to 5 | ++ | CCCCSc1cc(-n2nc(C)c3c2CC(C)(C)CC3=O)ccc1C(N)=O [Compound 103, 2-(butylthio)-4-(3,6,6-trimethyl-4-oxo-4,5,6,7-tetrahydro-1H-indazol-1-yl)benzamide] |
| < 0.5 | +++ | Cc1nn(-c2ccc(C(N)=O)c(NC3CCC3)c2)c2c1C(=O)CC(C)(C)C2 [Compound 117, 2-(cyclobutylamino)-4-(3,6,6-trimethyl-4-oxo-4,5,6,7-tetrahydro-1H-indazol-1-yl)benzamide] |
| 0.5 to 5 | +++ | Cc1nn(-c2ccc(C(N)=O)c(NC(CCO)CCO)c2)c2c1C(=O)CC(C)(C)C2 [Compound 121, 2-{[3-hydroxy-1-(2-hydroxyethyl)propyl]amino}-4-(3,6,6-trimethyl-4-oxo-4,5,6,7-tetrahydro-1H-indazol-1-yl)benzamide] |

The next lines start with the compound.

| SMILES | IC50 [1] [µM] | relative binding affinity to HSP-90 [2] |
| --- | --- | --- |
| CCCCOc1cc(C(N)=O)ccc1-n1cc(C)c2c1CC(C)(C)CC2=O [Compound 53, 3-butoxy-4-(3,6,6-trimethyl-4-oxo-4,5,6,7-tetrahydroindol-1-yl)benzamide] | 5 to 50 | ++ |
| Cc1cn(-c2ccc(C(N)=O)c(NC(N)=O)c2)c2c1C(=O)CC(C)(C)C2 [Compound 55, 1-(2-carbamoyl-5-(3,6,6-trimethyl-4-oxo-4,5,6,7-tetrahydroindol-1-yl)phenyl)urea] | 0.5 to 5 | ++ |
| Cc1cc2c(n1-c1ccc(C(N)=O)cc1-c1ccsc1)CC(C)(C)CC2=O [Compound 70, 3-(3-thienyl)-4-(2,6,6-trimethyl-4-oxo-4,5,6,7-tetrahydro-1H-indol-1-yl)benzamide] | 5 to 50 | + |
| COc1cc(Nc2cc(-n3c(C)cc4c3CC(C)(C)CC4=O)ccc2C(N)=O)cc(OC)c1OC [Compound 76, 2-[(3,4,5-trimethoxyphenyl)amino]-4-(2,6,6-trimethyl-4-oxo-4,5,6,7-tetrahydro-1H-indol-1-yl)benzamide] | 0.5 to 5 | +++ |
| Cc1cc2c(n1-c1ccc(C(N)=O)c(-c3ccncc3)c1)CC(C)(C)CC2=O [Compound 77, 2-pyridin-4-yl-4-(2,6,6-trimethyl-4-oxo-4,5,6,7-tetrahydro-1H-indol-1-yl)benzamide] | 5 to 50 | ++ |
| Cc1cc2c(n1-c1ccc(C(N)=O)c(NN3CCOCC3)c1)CC(C)(C)CC2=O [Compound 94, 2-(morpholin-4-ylamino)-4-(2,6,6-trimethyl-4-oxo-4,5,6,7-tetrahydro-1H-indol-1-yl)benzamide] | 5 to 50 | ++ |
| Cc1cn(-c2ccc(C(N)=O)c(N3CCN(C)CC3)c2)c2c1C(=O)CC(C)(C)C2 [Compound 99, 2-(4-methylpiperazin-1-yl)-4-(3,6,6-trimethyl-4-oxo-4,5,6,7-tetrahydro-1H-indol-1-yl)benzamide] | 5 to 50 | ++ |
| Cc1cn(-c2ccc(C(N)=O)c(Sc3ccncc3)c2)c2c1C(=O)CC(C)(C)C2 [Compound 105, 2-(pyridin-4-ylthio)-4-(3,6,6-trimethyl-4-oxo-4,5,6,7-tetrahydro-1H-indol-1-yl)benzamide] | 5 to 50 | ++ |
| CC1(C)CC(=O)c2c(C(F)(F)F)nn(-c3ccc(C(N)=O)c(NCCNS(C)(=O)=O)c3)c2C1 [Compound 133, 4-[6,6-dimethyl-4-oxo-3-(trifluoromethyl)-4,5,6,7-tetrahydro-1H-indazol-1-yl]-2-({2-[(methylsulfonyl)amino]ethyl}amino)benzamide] | 5 to 50 | ++ |
